{"source": "patent US20230374034A1", "about": "“NOVEL BICYCLIC COMPOUNDS” (PRISM BIOLAB CO., LTD., priority 2020, published 2023)"}
{"system": "NICD (Notch intracellular domain) CSL-bla reporter in HeLa cells", "assay": "Notch assay (CellSensor T-REx NICD CSL-bla HeLa beta-lactamase reporter; Method 1 / Method 2)", "type": "cell-based", "details": "Homo sapiens, 10 μM compound, Method 1 (10× compound prepared in assay medium, added to plated cells), read-out: inhibiton (%) at 10 μM", "procedure,_shortened": "(§1)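 HeLa cells carrying doxycycline-inducible NICD and a CSL-driven beta-lactamase reporter, 10^3 cells/well, were treated with compound plus doxycycline for 16-20 h at 37 °C. CCF4-AM substrate was loaded for 4 h at room temperature; background-subtracted blue (460 nm)/green (530 nm) emission ratio taken per well.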", "units": {"inhibition at 10 µM": "%"}}
{"smiles": "CC(C)[C@@H]1ON(C(=O)OCc2cccc3ccccc23)C2CN(C(C)C)C(=O)[C@H](Cc3ccc(O)cc3)N2C1=O", "note": "(stereo partly drawn) [Compound I-22, (3S,6S)-naphthalen-1-ylmethyl 6-(4-hydroxybenzyl)-3,8-diisopropyl-4,7-dioxohexahydropyrazino[2,1-c][1,2,4]oxadiazine-1(6H)-carboxylate]", "inhibition at 10 µM": 72.8}
{"smiles": "CC(C)[C@H]1ON(C(=O)OCC2CCCCC2)C2CN(Cc3ccccc3)C(=O)[C@H](Cc3ccc(O)cc3)N2C1=O", "note": "(stereo partly drawn) [Compound I-7, (3R,6S)-cyclohexylmethyl 8-benzyl-6-(4-hydroxybenzyl)-3-isopropyl-4,7-dioxohexahydropyrazino[2,1-c][1,2,4]oxadiazine-1(6H)-carboxylate]", "inhibition at 10 µM": 55.5}
{"smiles": "CC(C)[C@H]1C(=O)N(Cc2cccc3ccccc23)CC2N(C(=O)OCc3cccc4ccccc34)O[C@H](CC(N)=O)C(=O)N21", "note": "(stereo partly drawn) [Compound I-19, (3R,6S)-naphthalen-1-ylmethyl 3-(2-amino-2-oxoethyl)-6-isopropyl-8-(naphthalen-1-ylmethyl)-4,7-dioxohexahydropyrazino[2,1-c][1,2,4]oxadiazine-1(6H)-carboxylate]", "inhibition at 10 µM": 67.3}
{"smiles": "CCCCCCOC(=O)N1O[C@@H](CCCC)C(=O)N2C1CN(Cc1ccccc1)C(=O)[C@@H]2Cc1ccc(O)cc1", "note": "(stereo partly drawn) [Compound I-4, (3S,6S)-hexyl 8-benzyl-3-butyl-6-(4-hydroxybenzyl)-4,7-dioxohexahydropyrazino[2,1-c][1,2,4]oxadiazine-1(6H)-carboxylate]", "inhibition at 10 µM": 57.1}
{"system": "NICD (Notch intracellular domain) CSL-bla reporter in HeLa cells", "assay": "Notch assay (CellSensor T-REx NICD CSL-bla HeLa beta-lactamase reporter; Method 1 / Method 2)", "type": "cell-based", "details": "Homo sapiens, 10 μM compound, Method 2 (40 nL of 1000× compound added to plate with Echo), read-out: inhibiton (%) at 10 μM", "procedure,_shortened": "as §1", "units": {"inhibition at 10 µM": "%"}}
{"smiles": "CC(C)C[C@H]1ON(CCCc2ccccc2)C2CN(C3CCNCC3)C(=O)[C@H](CC(C)C)N2C1=O", "note": "(stereo partly drawn) [Compound I-147, (3R,6S)-3,6-diisobutyl-1-(3-phenylpropyl)-8-(piperidin-4-yl)tetrahydropyrazino[2,1-c][1,2,4]oxadiazine-4,7(3H,6H)-dione]", "inhibition at 10 µM": 50.2}
{"smiles": "CC(C)C[C@H]1ON(C(=O)OCc2ccccc2)C2CN(C3CCN(C)CC3)C(=O)[C@H](CC3CCCCC3)N2C1=O", "note": "(stereo partly drawn) [Compound I-140, benzyl (3R,6S)-6-(cyclohexylmethyl)-3-isobutyl-8-(1-methylpiperidin-4-yl)-4,7-dioxohexahydropyrazino [2,1-c][1,2,4]oxadiazine-1(6H)-carboxylate]", "inhibition at 10 µM": 60.9}
{"smiles": "CC(C)C[C@H]1ON(C(=O)OCc2cccc3ccccc23)C2CN(C3CCNCC3)C(=O)[C@H](CC(C)C)N2C1=O", "note": "(stereo partly drawn) [Compound I-136, naphthalen-1-ylmethyl (3R,6S)-3,6-diisobutyl-4,7-dioxo-8-(piperidin-4-yl)hexahydropyrazino[2,1-c][1,2,4]oxadiazine-1(6H)-carboxylate]", "inhibition at 10 µM": 79.7}
{"smiles": "CC(C)CCNC(=O)[C@H](Cc1ccc(O)cc1)N1CC2N(C(=O)OCCC(C)C)O[C@H](Cc3ccccc3)C(=O)N2[C@@H](Cc2ccc(O)cc2)C1=O", "note": "(stereo partly drawn) [Compound I-107, isopentyl (3R,6S)-3-benzyl-6-(4-hydroxybenzyl)-8-((S)-3-(4-hydroxyphenyl)-1-(isopentylamino)-1-oxopropan-2-yl)-4,7-dioxohexahydropyrazino[2,1-c][1,2,4]oxadiazine-1(6H)-carboxylate]", "inhibition at 10 µM": 61.1}
{"smiles": "O=C(NCCCO)[C@H](Cc1ccccc1)N1CC2N(C(=O)OCCc3ccc(O)cc3)O[C@H](Cc3ccccc3)C(=O)N2[C@@H](Cc2ccccc2)C1=O", "note": "(stereo partly drawn) [Compound I-81, 4-hydroxyphenethyl (3R,6S)-3,6-dibenzyl-8-((S)-1-((3-hydroxypropyl)amino)-1-oxo-3-phenylpropan-2-yl)-4,7-dioxohexahydro-pyrazino[2,1-c] [1,2,4]oxadiazine-1(6H)-carboxylate]", "inhibition at 10 µM": 53}
{"smiles": "NC(=O)CC[C@H]1ON(C(=O)NCCC(c2ccccc2)c2ccccc2)C2CN(Cc3cccc4ccccc34)C(=O)[C@H](Cc3ccccc3)N2C1=O", "note": "(stereo partly drawn) [Compound I-54, (3R,6S)-3-(3-amino-3-oxopropyl)-6-benzyl-N-(3,3-diphenylpropyl)-8-(naphthalen-1-ylmethyl)-4,7-dioxohexahydropyrazino[2,1-c][1,2,4]oxadiazine-1(6H)-carboxamide]", "inhibition at 10 µM": 60.4}
{"smiles": "CC(C)CCOC(=O)N1O[C@H](Cc2ccc(O)cc2)C(=O)N2C1CN([C@@H](Cc1ccc(O)cc1)C(=O)NCCc1ccccc1)C(=O)[C@@H]2Cc1ccc(O)cc1", "note": "(stereo partly drawn) [Compound I-117, isopentyl (3R,6S)-3,6-bis(4-hydroxybenzyl)-8-((S)-3-(4-hydroxyphenyl)-1-oxo-1-(phenethylamino)propan-2-yl)-4,7-dioxohexahydropyrazino[2,1-c][1,2,4]oxadiazine-1(6H)-carboxylate]", "inhibition at 10 µM": 59.7}
{"smiles": "CCCCOC(=O)N1O[C@H](CC2CCCCC2)C(=O)N2C1CN(CCC(C)C)C(=O)[C@@H]2CCCCN", "note": "(stereo partly drawn) [Compound I-35, (3R,6S)-butyl 6-(4-aminobutyl)-3-(cyclohexylmethyl)-8-isopentyl-4,7-dioxohexahydropyrazino[2,1-c][1,2,4]oxadiazine-1(6H)-carboxylate]", "inhibition at 10 µM": 54}
{"smiles": "CCCCCOC(=O)N1O[C@H](Cc2ccccc2)C(=O)N2C1CN([C@@H](Cc1ccc(O)cc1)C(=O)NCCCC(C)C)C(=O)[C@@H]2Cc1ccc(O)cc1", "note": "(stereo partly drawn) [Compound I-111, pentyl (3R,6S)-3-benzyl-6-(4-hydroxybenzyl)-8-((S)-3-(4-hydroxyphenyl)-1-((4-methylpentyl)amino)-1-oxopropan-2-yl)-4,7-dioxohexahydropyrazino[2,1-c][1,2,4]oxadiazine-1(6H)-carboxylate]", "inhibition at 10 µM": 53.9}
{"smiles": "NC(=O)CC[C@H]1C(=O)N([C@@H](Cc2ccccc2)C(=O)NCCCc2ccccc2)CC2N(C(=O)OCCc3ccccc3)O[C@H](Cc3ccccc3)C(=O)N21", "note": "(stereo partly drawn) [Compound I-125, phenethyl (3R,6S)-6-(3-amino-3-oxopropyl)-3-benzyl-4,7-dioxo-8-((S)-1-oxo-3-phenyl-1-((3-phenylpropyl)amino)propan-2-yl)hexahydropyrazino [2,1-c][1,2,4]oxadiazine-1(6H)-carboxylate]", "inhibition at 10 µM": 59.6}
{"smiles": "CC(C)CCCNC(=O)[C@H](Cc1ccc(O)cc1)N1CC2N(C(=O)OCCc3ccc(O)cc3)O[C@H](Cc3ccccc3)C(=O)N2[C@@H](Cc2ccc(O)cc2)C1=O", "note": "(stereo partly drawn) [Compound I-110, 4-hydroxyphenethyl (3R,6S)-3-benzyl-6-(4-hydroxybenzyl)-8-((S)-3-(4-hydroxyphenyl)-1-((4-methylpentyl)amino)-1-oxopropan-2-yl)-4,7-dioxohexahydropyrazino[2,1-c][1,2,4]oxadiazine-1(6H)-carboxylate]", "inhibition at 10 µM": 75.2}
{"smiles": "CCCC[C@@H](C(=O)NCCc1ccccc1)N1CC2N(C(=O)OCCc3ccc(O)cc3)O[C@H](CC(C)C)C(=O)N2[C@@H](Cc2ccc(O)cc2)C1=O", "note": "(stereo partly drawn) [Compound I-103, 4-hydroxyphenethyl (3R,6S)-6-(4-hydroxybenzyl)-3-isobutyl-4,7-dioxo-8-((S)-1-oxo-1-(phenethylamino)hexan-2-yl)hexahydropyrazino[2,1-c][1,2,4]oxadiazine-1(6H)-carboxylate]", "inhibition at 10 µM": 59.9}
{"smiles": "CCCCOC(=O)N1O[C@H](CCC(N)=O)C(=O)N2C1CN(CCO)C(=O)[C@@H]2C", "note": "(stereo partly drawn) [Compound I-50, (3R,6S)-butyl 3-(3-amino-3-oxopropyl)-8-(2-hydroxyethyl)-6-methyl-4,7-dioxohexahydropyrazino[2,1-c][1,2,4]oxadiazine-1(6H)-carboxylate]", "inhibition at 10 µM": 64.6}
{"smiles": "CCCC[C@@H](C(=O)NCCCc1ccccc1)N1CC2N(C(=O)OCCc3ccccc3)O[C@H](CC(C)C)C(=O)N2[C@@H](CCC(N)=O)C1=O", "note": "(stereo partly drawn) [Compound I-124, phenethyl (3R,6S)-6-(3-amino-3-oxopropyl)-3-isobutyl-4,7-dioxo-8-((S)-1-oxo-1-((3-phenylpropyl)amino)hexan-2-yl)hexahydropyrazino[2,1-c][1,2,4]oxadiazine-1(6H)-carboxylate]", "inhibition at 10 µM": 57.1}
{"smiles": "NC(=O)C[C@H]1C(=O)N(CCc2cccc3ccccc23)CC2N(C(=O)OCC3CCCCC3)O[C@H](Cc3ccc(O)cc3)C(=O)N21", "note": "(stereo partly drawn) [Compound I-49, (3R,6S)-cyclohexylmethyl 6-(2-amino-2-oxoethyl)-3-(4-hydroxybenzyl)-8-(2-(naphthalen-1-yl)ethyl)-4,7-dioxohexahydropyrazino[2,1-c][1,2,4]oxadiazine-1(6H)-carboxylate]", "inhibition at 10 µM": 92.6}
{"smiles": "NCCCC[C@H]1C(=O)N(CC2CCCCC2)CC2N(C(=O)OCC3CCCCC3)O[C@H](Cc3ccccc3)C(=O)N21", "note": "(stereo partly drawn) [Compound I-29, (3R,6S)-cyclohexylmethyl 6-(4-aminobutyl)-3-benzyl-8-(cyclohexylmethyl)-4,7-dioxohexahydropyrazino[2,1-c][1,2,4]oxadiazine-1(6H)-carboxylate]", "inhibition at 10 µM": 101}
{"smiles": "CC(C)C[C@H]1ON(C(=O)NCCC(c2ccccc2)c2ccccc2)C2CN(CCC(c3ccccc3)c3ccccc3)C(=O)[C@H](CCC(N)=O)N2C1=O", "note": "(stereo partly drawn) [Compound I-56, (3R,6S)-6-(3-amino-3-oxopropyl)-N,8-bis(3,3-diphenylpropyl)-3-isobutyl-4,7-dioxohexahydropyrazino[2,1-c][1,2,4]oxadiazine-1(6H)-carboxamide]", "inhibition at 10 µM": 53}
{"smiles": "COC(=O)N1O[C@H](CC2CCCCC2)C(=O)N2C1CN(CCc1cccc3ccccc13)C(=O)[C@@H]2CCCCN", "note": "(stereo partly drawn) [Compound I-42, (3R,6S)-methyl 6-(4-aminobutyl)-3-(cyclohexylmethyl)-8-(2-(naphthalen-1-yl)ethyl)-4,7-dioxohexahydropyrazino[2,1-c][1,2,4]oxadiazine-1(6H)-carboxylate]", "inhibition at 10 µM": 95}
{"smiles": "CC(C)C[C@H]1ON(C(=O)OCCc2ccccc2)C2CN([C@@H](Cc3ccccc3)C(=O)NCCCc3ccccc3)C(=O)[C@H](CCC(N)=O)N2C1=O", "note": "(stereo partly drawn) [Compound I-123, phenethyl (3R,6S)-6-(3-amino-3-oxopropyl)-3-isobutyl-4,7-dioxo-8-((S)-1-oxo-3-phenyl-1-((3-phenylpropyl)amino)propan-2-yl)hexahydropyrazino[2,1-c][1,2,4]oxadiazine-1(6H)-carboxylate]", "inhibition at 10 µM": 52.3}
